Results on 4 molecules are retold here after ChEMBL document CHEMBL5506016 (J Med Chem, 2024).

Broadly, the EC50 is the concentration that produces a half-maximal response. Higher therefore signals weaker potency.

The source made the active and inactive calls. The calls are words filed in the database; no cut-off is given here. Where only a bound is given, the exact number is not on record here.

In assay [1] the target is T1, ADP-sugar pyrophosphatase (Homo sapiens, UniProt Q9UKK9). Also on record: species or system HEK293.
In assay [2] the target is T1, ADP-sugar pyrophosphatase. As to conditions: filed as antagonist.

Consider `C=CC(=O)N1CCC[C@@H](n2nc(-c3ccc(Oc4ccccc4)cc3)c3c(N)ncnc32)C1` [IBRUTINIB], for which the midpoint of the response in assay [1], the EC50, lay at 1.23 µM.
As to `CC#CC(=O)N[C@H]1CCCN(c2c(F)cc(C(N)=O)c3[nH]c(C)c(C)c23)C1` [BRANEBRUTINIB], the EC50 in assay [1] was over 10 µM.
`CC#CC(=O)N1CCC[C@H]1c1nc(-c2ccc(C(=O)Nc3ccccn3)cc2)c2c(N)nccn12` [ACALABRUTINIB] displayed an EC50 in assay [1] of over 10 µM.
On to `Cn1c(=O)c2c(nc(N3CCN(CCCCN)CC3)n2Cc2nnc(-c3ccc(Cl)c(Cl)c3)o2)n(C)c1=O`, for which the result in assay [2] was Active.
